A short description of this assay: Compound was evaluated for the binding affinity at 5- HT1A receptor.

Structures are written as SMILES.

Take `N=C(N)NN=Cc1c[nH]c2ccc(O)cc12` [(2E)-2-[(5-hydroxy-1H-indol-3-yl)methylene]hydrazinecarboximidamide]: the inhibition constant (Ki) worked out at 63 nM.

The values are drawn from BindingDB's records for doi:10.1021/jm00013a009 (Sandoz Pharma, 1995).
